Laboratory results reported in US20110319416A1, “Subunit Selective NMDA Receptor Antagonists For The Treatment Of Neurological Conditions” (EMORY UNIVERSITY, priority 2009, published 2011).
Marks after values point to notes of the source that are not given here.

Assays:
NR2C = NR2C (Homo sapiens, UniProt Q05586+Q14957); details: cited from earlier work; for potency estimated from few doses: Ki estimated from functionally determined IC50 at a single agonist concentration, read-out: 2C (μM) Ki**; for IC50: read-out: 2C (μM) IC50, non-competitive and uncompetitive antagonists
NR2B [1] = target: T1, NR2B (Homo sapiens, UniProt Q05586+Q13224); details: cited from earlier work; for potency estimated from few doses: Ki estimated from functionally determined IC50 at a single agonist concentration, read-out: 2B (μM) Ki**
NR2D [2] = target: T2, NR2D (Homo sapiens, UniProt O15399+Q05586); test: Literature functional antagonist potency at NR2D (Table 1); type: cell-based; details: for 2A/2D (ratio of Ki**): functional Ki ratio
NR2B [3] = target: T1, NR2B; test: Literature functional antagonist potency at NR2B (Table 1); details: for 2A/2B (ratio of Ki**): functional Ki ratio
NR2D [4] = target: T2, NR2D; details: cited from earlier work; for potency estimated from few doses: Ki estimated from functionally determined IC50 at a single agonist concentration, read-out: 2D (μM) Ki**; for IC50: read-out: 2D (μM) IC50, non-competitive and uncompetitive antagonists
NR2A = NR2A (Homo sapiens, UniProt Q05586+Q12879); details: cited from earlier work; for potency estimated from few doses: Ki estimated from functionally determined IC50 at a single agonist concentration, read-out: 2A (μM) Ki**; for IC50: read-out: 2A (μM) IC50, non-competitive and uncompetitive antagonists
NR1/NR2D [5] = target: T3, NR1/NR2D (Rattus norvegicus, UniProt Q62645); test: Ca2+ fluorescence screening assay in NR1/NR2D expressing BHK cells (96 well); type: cell-based; design: expressed in transfected cells; host or cells: BHK-21 cells; NR1 induced by doxycyclin (Tet-On), NR2D constitutive; details: 10 μM test compound, 100 μM glutamate/1 mM glycine
GluR1 = GluR1 (Rattus norvegicus, UniProt P19490); test: Two electrode voltage clamp, Xenopus oocytes expressing GluR1; type: cell-based
Procedure: (§1) Quality of synthesized cRNA was assessed by gel electrophoresis, and quantity was estimated by spectroscopy and gel electrophoresis. Stage V and VI oocytes were surgically removed from the ovaries of large, well-fed and healthy Xenopus laevis anesthetized with 3-amino-benzoic acid ethyl ester (3 gm/l) as previously described. Clusters of isolated oocytes were incubated with 292 U/ml Worthington (Freehold, N.J.) type IV collagenase or 1.3 mg/ml collagenase (Life Technologies, Gaithersburg, MD; 17018-029) for 2 hr in Ca^2+-free solution comprised of (in mM) 115 NaCl, 2.5 KCl, and 10 HEPES, pH 7.5, with slow agitation to remove the follicular cell layer. Oocytes were then washed extensively in the same solution supplemented with 1.8 mM CaCl2 and maintained in Barth's solution comprised of (in mM): 88 NaCl, 1 KCl, 2.4 NaHCO3, 10 HEPES, 0.82 MgSO4, 0.33 Ca(NO3)2, and 0.91 CaCl2 and supplemented with 100 μg/m1 gentamycin, 10 μg/ml streptomycin, and 10 μg/ml penicillin. Oocytes were manually defolliculated and injected within 24 hrs of isolation with 3-5 ng of NR1 subunit cRNA and 7-10 ng of NR2 cRNA subunit in a 50 nl volume, or 5-10 ng of AMPA or kainate receptor cRNAs in a 50 nl volume, and incubated in Barth's solution at 18° C. for 1-7 d. Glass injection pipettes had tip sizes ranging from 10-20 microns, and were backfilled with mineral oil.
(§2) Two electrode voltage-clamp recordings were made 2-7 days post-injection as previously described. Oocytes were placed in a dual-track plexi-glass recording chamber with a single perfusion line that splits in a Y-configuration to perfuse two oocytes. Dual recordings were made at room temperature (23° C.) using two Warner OC725B two-electrode voltage clamp amplifiers, arranged as recommended by the manufacturer. Glass microelectrodes (1-10 Megaohms) were filled with 300 mM KCl (voltage electrode) or 3 M KCl (current electrode). The bath clamps communicated across silver chloride wires placed into each side of the recording chamber, both of which were assumed to be at a reference potential of 0 mV. Oocytes were perfused with a solution comprised of (in mM) 90 NaCl, 1 KCl, 10 HEPES, and 0.5 BaCl2; pH was adjusted by addition of 1-3 M NaOH of HC1 to 7.4. Oocytes were recorded under voltage clamp at −40 mV. […] In some experiments, 10 μM EDTA was obtained by adding a 1:1000 dilution of 10 mM EDTA, in order to chelate contaminant divalent ions such as Zn^2+. […] Concentration effect curves consisting of 4 to 8 concentrations were obtained in this manner. The baseline leak current at −40 mV was measured before and after recording, and the full recording linearly corrected for any change in leak current. […] Each experiment consisted of recordings from 3 to 10 oocytes obtained from a single frog. Results from multiple experiments were pooled, and the average percent responses at antagonist concentrations were fitted by the equation,
(§3) Percent Response=(100−minimum)/(1+([conc]/IC50)nH)+minimum

NR1/NR2B [6] = target: NR1/NR2B (Rattus norvegicus, UniProt Q00960); test: Two electrode voltage clamp, Xenopus oocytes expressing recombinant NR1/NR2B; type: cell-based
Procedure: as §1, §2, §3

NR1/NR2B [7] = target: NR1/NR2B (Rattus norvegicus, UniProt P35439+Q00960); test: as above; type: cell-based; details: logistic fit, minimum forced to 0; read-out: 2B IC50
Procedure: as §1, §2, §3

[8] = target: homomeric GluR6 kainate receptor (Rattus norvegicus, UniProt P42260); test: Two electrode voltage clamp, Xenopus oocytes expressing homomeric GluR6; type: cell-based; details: in words
Procedure: Real time Ca^2+ signals were recorded in 96 well plates using FlexStation II multi-mode plate readers. […] Test compounds were added to each well together with agonist to yield a final well concentration of 10 μM test compound in 0.9% DMSO. Compounds that altered the response of any well compared to on-plate control wells beyond 2.5-fold of the standard deviation (calculated from all wells on the plate) or by more than 40% of the control response on a given plate were selected for secondary screening using two-electrode voltage-clamp recordings from Xenopus oocytes expressing recombinant NR1/NR2D receptors. To complete the secondary screen, we obtained selected compounds in powder form. […] We subsequently initiated novel synthesis on this class of compound.
Quality of synthesized cRNA was assessed by gel electrophoresis, and quantity was estimated by spectroscopy and gel electrophoresis. Stage V and VI oocytes were surgically removed from the ovaries of large, well-fed and healthy Xenopus laevis anesthetized with 3-amino-benzoic acid ethyl ester (3 gm/l) as previously described. […]
Two electrode voltage-clamp recordings were made 2-7 days post-injection as previously described. […] Oocytes were recorded under voltage clamp at −40 mV. […] The baseline leak current at −40 mV was measured before and after recording, and the full recording linearly corrected for any change in leak current. […]

NR1/NR2A [9] = target: NR1/NR2A (Rattus norvegicus, UniProt Q00959); test: Two electrode voltage clamp, Xenopus oocytes expressing recombinant NR1/NR2A; type: cell-based; details: for 2A percent response at the maximum tested concentration: at 100 μM
Procedure: as §1, §2, §3

NR1/NR2A [10] = target: NR1/NR2A (Rattus norvegicus, UniProt P35439+Q00959); test: as above; type: cell-based; details: logistic fit, minimum forced to 0; read-out: 2A IC50
Procedure: as §1, §2, §3

NR1/NR2C [11] = target: NR1/NR2C (Rattus norvegicus, UniProt Q00961); test: Two electrode voltage clamp, Xenopus oocytes expressing recombinant NR1/NR2C; type: cell-based; details: for IC50: logistic fit, minimum forced to 0, read-out: 2C IC50
Procedure: as §1, §2, §3

NR1/NR2C [12] = target: NR1/NR2C (Rattus norvegicus, UniProt P35439+Q00961); test: as above; type: cell-based; details: logistic fit, minimum forced to 0; read-out: 2C IC50
Procedure: as §1, §2, §3

NR1/NR2D [13] = target: NR1/NR2D (Rattus norvegicus, UniProt P35439+Q62645); test: Two electrode voltage clamp, Xenopus oocytes expressing recombinant NR1/NR2D; type: cell-based; details: logistic fit, minimum forced to 0; read-out: 2D IC50
Procedure: as §1, §2, §3

NR1/NR2D [14] = target: T3, NR1/NR2D; test: as above; type: cell-based
Procedure: as §1, §2, §3

[15] = not surmounted by agonists at 500-fold of EC50

Sequence of NR2C (Q14957 20-1233, other chains not shown): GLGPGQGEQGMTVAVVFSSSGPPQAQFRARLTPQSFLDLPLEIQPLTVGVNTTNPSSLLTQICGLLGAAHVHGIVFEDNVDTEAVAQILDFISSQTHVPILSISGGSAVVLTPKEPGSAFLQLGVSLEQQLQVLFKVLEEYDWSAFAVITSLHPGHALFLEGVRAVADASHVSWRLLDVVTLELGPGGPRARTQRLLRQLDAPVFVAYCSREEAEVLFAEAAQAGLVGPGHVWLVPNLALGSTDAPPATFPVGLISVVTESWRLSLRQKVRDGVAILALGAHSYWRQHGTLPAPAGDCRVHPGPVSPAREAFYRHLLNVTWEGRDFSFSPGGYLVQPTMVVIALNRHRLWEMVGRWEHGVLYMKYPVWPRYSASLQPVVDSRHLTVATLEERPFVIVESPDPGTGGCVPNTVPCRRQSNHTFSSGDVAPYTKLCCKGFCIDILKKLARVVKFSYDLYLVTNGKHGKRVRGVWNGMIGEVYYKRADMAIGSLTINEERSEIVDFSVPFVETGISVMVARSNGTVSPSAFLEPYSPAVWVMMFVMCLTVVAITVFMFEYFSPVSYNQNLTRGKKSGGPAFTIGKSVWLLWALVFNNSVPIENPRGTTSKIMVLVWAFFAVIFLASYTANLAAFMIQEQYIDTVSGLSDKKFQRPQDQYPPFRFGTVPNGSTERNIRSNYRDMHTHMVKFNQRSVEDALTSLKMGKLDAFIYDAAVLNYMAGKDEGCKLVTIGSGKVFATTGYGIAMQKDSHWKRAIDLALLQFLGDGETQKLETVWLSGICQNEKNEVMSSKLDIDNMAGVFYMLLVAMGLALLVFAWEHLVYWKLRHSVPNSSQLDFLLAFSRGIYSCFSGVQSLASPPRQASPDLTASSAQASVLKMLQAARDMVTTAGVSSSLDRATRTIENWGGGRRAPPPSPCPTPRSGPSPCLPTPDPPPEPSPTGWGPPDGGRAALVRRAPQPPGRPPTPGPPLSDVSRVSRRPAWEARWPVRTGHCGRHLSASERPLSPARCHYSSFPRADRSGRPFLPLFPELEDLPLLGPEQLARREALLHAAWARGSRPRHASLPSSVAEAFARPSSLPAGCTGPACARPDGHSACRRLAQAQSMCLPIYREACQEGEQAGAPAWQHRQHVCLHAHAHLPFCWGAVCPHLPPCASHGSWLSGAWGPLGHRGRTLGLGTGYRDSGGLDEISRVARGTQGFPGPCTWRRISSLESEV
Sequence of NR1/NR2A (Rattus norvegicus, UniProt Q00959) (Q00959 23-1464, other chains not shown): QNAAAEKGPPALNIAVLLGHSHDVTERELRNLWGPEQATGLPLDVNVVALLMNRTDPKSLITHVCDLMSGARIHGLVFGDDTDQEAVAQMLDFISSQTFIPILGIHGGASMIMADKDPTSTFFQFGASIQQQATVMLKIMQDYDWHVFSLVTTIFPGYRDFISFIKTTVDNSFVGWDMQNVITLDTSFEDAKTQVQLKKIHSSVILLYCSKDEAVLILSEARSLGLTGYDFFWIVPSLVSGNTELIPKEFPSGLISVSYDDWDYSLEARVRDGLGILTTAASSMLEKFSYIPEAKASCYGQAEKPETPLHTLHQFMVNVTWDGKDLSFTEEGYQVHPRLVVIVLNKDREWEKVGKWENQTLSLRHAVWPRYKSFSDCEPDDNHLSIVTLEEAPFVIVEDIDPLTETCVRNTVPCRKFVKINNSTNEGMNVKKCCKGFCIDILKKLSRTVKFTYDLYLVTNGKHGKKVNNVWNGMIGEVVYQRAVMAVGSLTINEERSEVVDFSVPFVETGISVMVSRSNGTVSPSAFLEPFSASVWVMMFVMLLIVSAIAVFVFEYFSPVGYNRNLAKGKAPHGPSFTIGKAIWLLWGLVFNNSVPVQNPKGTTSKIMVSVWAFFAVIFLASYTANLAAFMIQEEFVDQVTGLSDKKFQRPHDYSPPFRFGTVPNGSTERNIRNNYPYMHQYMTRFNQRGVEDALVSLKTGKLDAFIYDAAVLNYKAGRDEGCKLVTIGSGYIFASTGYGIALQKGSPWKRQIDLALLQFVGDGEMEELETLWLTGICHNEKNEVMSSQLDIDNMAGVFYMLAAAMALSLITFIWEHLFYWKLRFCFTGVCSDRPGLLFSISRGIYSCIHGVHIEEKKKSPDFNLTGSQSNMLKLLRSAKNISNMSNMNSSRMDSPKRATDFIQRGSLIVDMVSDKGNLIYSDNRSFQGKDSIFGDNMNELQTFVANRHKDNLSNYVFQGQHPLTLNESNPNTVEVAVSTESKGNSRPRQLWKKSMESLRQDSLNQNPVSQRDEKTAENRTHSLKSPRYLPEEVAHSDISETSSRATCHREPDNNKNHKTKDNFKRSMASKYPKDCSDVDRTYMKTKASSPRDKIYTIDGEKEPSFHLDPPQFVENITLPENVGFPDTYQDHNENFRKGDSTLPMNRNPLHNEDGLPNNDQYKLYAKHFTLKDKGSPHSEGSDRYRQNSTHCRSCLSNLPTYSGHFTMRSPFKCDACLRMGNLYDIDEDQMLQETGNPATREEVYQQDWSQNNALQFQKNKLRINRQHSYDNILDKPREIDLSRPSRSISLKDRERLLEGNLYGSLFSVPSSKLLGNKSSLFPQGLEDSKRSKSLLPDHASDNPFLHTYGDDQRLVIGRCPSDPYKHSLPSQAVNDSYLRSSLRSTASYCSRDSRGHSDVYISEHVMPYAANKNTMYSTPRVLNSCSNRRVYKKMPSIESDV
Sequence of NR1/NR2A (Rattus norvegicus, UniProt P35439+Q00959) (Q00959 23-1464, other chains not shown): as above
Sequence of GluR1 (P19490 19-907): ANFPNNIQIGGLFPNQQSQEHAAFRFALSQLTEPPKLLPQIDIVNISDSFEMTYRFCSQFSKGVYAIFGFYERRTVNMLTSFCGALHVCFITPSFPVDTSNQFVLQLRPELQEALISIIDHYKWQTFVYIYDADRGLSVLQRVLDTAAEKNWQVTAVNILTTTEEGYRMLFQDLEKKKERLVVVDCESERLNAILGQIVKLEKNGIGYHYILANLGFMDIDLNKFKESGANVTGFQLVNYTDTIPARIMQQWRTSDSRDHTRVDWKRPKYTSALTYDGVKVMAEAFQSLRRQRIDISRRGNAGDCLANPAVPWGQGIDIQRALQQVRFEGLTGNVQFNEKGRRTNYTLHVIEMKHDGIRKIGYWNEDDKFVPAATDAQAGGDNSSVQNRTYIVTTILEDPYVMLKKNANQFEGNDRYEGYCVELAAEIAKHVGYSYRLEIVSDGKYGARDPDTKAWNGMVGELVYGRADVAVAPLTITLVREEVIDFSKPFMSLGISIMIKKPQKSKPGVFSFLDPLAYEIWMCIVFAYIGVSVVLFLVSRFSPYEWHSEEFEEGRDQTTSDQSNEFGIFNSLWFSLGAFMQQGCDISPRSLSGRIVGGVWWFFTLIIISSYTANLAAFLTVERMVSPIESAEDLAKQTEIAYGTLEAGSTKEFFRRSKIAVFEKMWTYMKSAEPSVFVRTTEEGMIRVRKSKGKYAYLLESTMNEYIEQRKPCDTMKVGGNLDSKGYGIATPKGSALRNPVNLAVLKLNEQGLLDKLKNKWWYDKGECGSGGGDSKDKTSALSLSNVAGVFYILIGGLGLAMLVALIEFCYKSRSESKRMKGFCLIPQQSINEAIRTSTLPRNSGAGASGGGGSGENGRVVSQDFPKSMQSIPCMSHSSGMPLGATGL

O=C(O)[C@H]1CN(CCCP(=O)(O)O)CCN1 [(R)CPP]
potency estimated from few doses (NR2C): 0.63 µM | potency estimated from few doses (NR2B [1]): 0.27 µM | 2A/2D (ratio of Ki**) (NR2D [2]): 0.02** | 2A/2B (ratio of Ki**) (NR2B [3]): 0.2** | potency estimated from few doses (NR2D [4]): 2 µM | potency estimated from few doses (NR2A): 0.04 µM

O=c1[nH]c2cc(Cl)c(Cl)c([N+](=O)[O-])c2[nH]c1=O [ACEA-1021]
Kb (NR2C; Kb determined by Schild analysis, read-out: 2C (μM) Kb): 0.003 µM | Kb (NR2B [1]; Kb determined by Schild analysis, read-out: 2B (μM) Kb): 0.004 µM | 2A/2D (ratio of Kb) (NR2D [2]; Kb ratio): 0.4 | 2A/2B (ratio of Kb) (NR2B [3]; Kb ratio): 1.0 | Kb (NR2D [4]; Kb determined by Schild analysis, read-out: 2D (μM) Kb): 0.011 µM | Kb (NR2A; Kb determined by Schild analysis, read-out: 2A (μM) Kb): 0.004 µM

COc1ccc2c(c1)[C@]13CCCC[C@@H]1[C@H](C2)N(C)CC3 [Dextromethorphan]
IC50 (NR2C): 1.1 µM | IC50 (NR2B [1]; read-out: 2B (μM) IC50, non-competitive and uncompetitive antagonists): 3.7 µM | 2A/2D (ratio of IC50) (NR2D [2]; IC50 ratio): 7.5 | 2A/2B (ratio of IC50) (NR2B [3]; IC50 ratio): 3.1 | IC50 (NR2D [4]): 1.5 µM | IC50 (NR2A): 11.3 µM

CC(C(O)c1ccc(O)cc1)N1CCC(Cc2ccccc2)CC1 (stereo not drawn) [Ifenprodil]
IC50 (NR2C): 29 µM | IC50 (NR2D [4]): 76 µM | IC50 (NR2A): 40 µM | identification in test screen of NR1/NR2D expressing BHK cells (NR1/NR2D [5]): successfully identified

O=C(O)[C@H]1NCCN(C(=O)c2ccc3ccc4ccccc4c3c2)[C@H]1C(=O)O [UBP141]
potency estimated from few doses (NR2C): 4.2 µM | potency estimated from few doses (NR2B [1]): 19.3 µM | 2A/2D (ratio of Ki**) (NR2D [2]): 5.1** | 2A/2B (ratio of Ki**) (NR2B [3]): 0.7** | potency estimated from few doses (NR2D [4]): 2.8 µM | selectivity for NR2D over NR2A (NR2D [4]; estimated Ki): ~5 fold | potency estimated from few doses (NR2A): 14.2 µM

CCN(CC)C(=S)Oc1ccc(C(=O)Nc2cccc3ccccc23)cc1 [compound 1063]
remaining activity at 100 µM (GluR1; at 100 μM, read-out: GluR1 percent effect at the maximum tested concentration): 105% | effect on recombinant AMPA receptors (GluR1; in words): little effect | effect on NR2B-containing receptors (NR1/NR2B [6]; in words): little effect | IC50 (NR1/NR2B [7]): 1230 µM | effect on recombinant kainate receptors [8]: little effect | effect on NR2A-containing receptors (NR1/NR2A [9]; in words): little effect | IC50 (NR1/NR2A [10]): 1370 µM | IC50 (half maximally inhibiting concentration), NR1/NR2C (NR1/NR2C [11]; in words): low micromolar | mode of block of NR1/NR2C receptors (NR1/NR2C [11]; [15]): non-competitive and voltage-independent blocker | maximum inhibition of NR1/NR2C receptor function (NR1/NR2C [11]; voltage clamp): 85% | IC50 (NR1/NR2C [12]): 2 µM | IC50 (NR1/NR2D [13]): 1 µM | selectivity for NR1/NR2D compared to NR1/NR2A (NR1/NR2D [14]; fitted IC50 values): > 500 fold | IC50 (half maximally inhibiting concentration), NR1/NR2D (NR1/NR2D [14]; in words): low micromolar | mode of block of NR1/NR2D receptors (NR1/NR2D [14]; [15]): non-competitive and voltage-independent blocker | maximum inhibition of NR1/NR2D receptor function (NR1/NR2D [14]; voltage clamp): 85%

Cc1ccc2[nH]c(=O)c(C3=NN(C(=O)CCC(=O)O)C(c4ccc(Br)cc4)C3)c(-c3ccccc3)c2c1 (stereo not drawn) [compound 1105]
IC50 (GluR1; logistic fit, minimum forced to 0): 109 µM | IC50 (NR1/NR2B [7]): 74 µM | IC50 (NR1/NR2A [10]): 218 µM | IC50 (NR1/NR2C [11]): 7 µM | IC50 (NR1/NR2C [12]): 7 µM | IC50 (NR1/NR2D [13]): 3 µM | IC50 (NR1/NR2D [14]; logistic fit, minimum forced to 0, read-out: 2D IC50): 3 µM

O=C(O)CCC(=O)N1N=C(c2c(-c3ccccc3)c3cc(Cl)ccc3[nH]c2=O)CC1c1ccc(Br)cc1 (stereo not drawn) [compound 1179]
IC50 (NR1/NR2B [6]; logistic fit, minimum forced to 0, read-out: 2B IC50): 22 µM | IC50 (NR1/NR2B [7]): 22 µM | IC50 (NR1/NR2A [10]): 123 µM | IC50 (NR1/NR2C [11]): 4 µM | IC50 (NR1/NR2C [12]): 4 µM | IC50 (NR1/NR2D [13]): 2 µM

O=C(O)CCC(=O)N1N=C(c2c(-c3ccccc3)c3cc(Br)ccc3[nH]c2=O)CC1c1ccc(F)cc1 (stereo not drawn) [compound 1184]
IC50 (NR1/NR2B [7]): 90 µM | 2A percent response at the maximum tested concentration (NR1/NR2A [9]): 87% at 100 μM | IC50 (NR1/NR2C [12]): 33 µM | IC50 (NR1/NR2D [13]): 22 µM

Cc1nc2ccc(Br)cc2c(-c2ccccc2)c1C1=NN(C(=O)CCC(=O)O)C(c2ccc(Br)cc2)C1 (stereo not drawn) [compound 1210]
IC50 (NR1/NR2B [7]): 209 µM | 2A percent response at the maximum tested concentration (NR1/NR2A [9]): 85% at 100 μM | IC50 (NR1/NR2C [12]): 33 µM | IC50 (NR1/NR2D [13]): 27 µM
